PMC10683025, “Discovery of a Hydroxylamine-Based Brain-Penetrant EGFR Inhibitor for Metastatic Non-Small-Cell Lung Cancer” (Journal of Medicinal Chemistry, 2023)
Where two headings read alike, the source gives them in different places.

How the values were obtained:
[1] = Pharmacokinetic study; format: in vivo, Sprague-Dawley rats
Description: Animal experiments were performed at Pharmaron, Inc. and animal use was approved by Pharmaron’s Institutional Animal Care and Use Committee (IACUC) in Pharmaron (Pharmaron IACUC, Protocol #PK-M-07182022, #PK-R-06012022, and #ON-CELL-XEN-06012022) following the guidance of AAALAC. Six- to eight-week-old male Sprague-Dawley rats (approximately 200–300 g) obtained from Si Bei Fu Laboratory Animal Technology Co., six- to eight-week-old male CD1 mice (approximately 20–30 g) obtained from Si Bei Fu Laboratory Animal Technology Co., and six- to eight-week-old female BALB/c nude mice (approximately 20–30 g) obtained from Si Bei Fu Laboratory Animal Technology Co., were used in the pharmacokinetic studies. Six- to eight-week-old female BALB/c nude mice (approximately 18–22 g) obtained from Beijing Anikeeper Biotech Co., Ltd. were used in the intracranial PDX study. Animals were housed at 20–25 °C with humidity ranging from 40 to 70% relative humidity, were exposed to 12 h light and dark cycles, and were supplied with food and water ab libitum.
Approximately 0.03 mL of blood was collected from the dorsal metatarsal vein (in the case of CD1 mice), 0.03 mL of blood from the orbit vein (in the case of BALB/c nude mice), or 0.2 mL of blood from the jugular vein (in the case of Sprague-Dawley rats) at each time point. Blood at each sampling point was transferred into a plastic micro centrifuge tube containing K2-EDTA, and collection tubes with blood samples and anticoagulant were inverted several times for proper mixing of the tube contents and placed on ice prior to centrifugation for plasma. Blood samples were centrifuged at 4 °C, 4000g for 5 min to obtain plasma. Samples were stored in a freezer at −75 °C prior to analysis. Concentrations of test articles in the plasma samples were determined using LC-MS/MS and WinNonlin 8.3 (Phoenix) was used for pharmacokinetic calculations. The values obtained were plotted on GraphPad Prism software and are presented as mean ± SD.

[2] = test system: Ba/F3 EGFR-del E746_A750/C797S cells; assay: CellTiter-Glo cell viability assay; format: cell-based; settings: Mus musculus, BaF3; 72 h, unadjusted for FBS
Description: (§1) The A431, HCC827, SK-BR-3, ZR-75–30, AU565, and Caco-2 cell lines were obtained from ATCC. The NCI-H1975 cell line was obtained from SIBS. The NCI-H3255 cell line was obtained from CoBioer. Engineered Ba/F3 cell lines were obtained from Crown Bioscience. MCKII-MDR1 cells were obtained from The Netherlands Cancer Institute. HEK293 cells were obtained from Invitrogen. A431 cells were cultured in DMEM (Life Technologies) with 10% FBS. HCC827, NCI-H1975, and AU565 cells were cultured in RPMI1640 (Invitrogen) with 10% FBS. NCI-H3255 cells were cultured in BEGM (Lonza) with 10% FBS. Ba/F3 EGFR-del E746_A750/C797S and Ba/F3 EGFR-L858R/C797S cells were cultured in RPMI (Invitrogen) with 10% FBS. SK-BR-3 cells were cultured in McCoy’s 5a (Invitrogen) with 10% FBS. ZR-75-30 cells were cultured in RPMI1640 (Invitrogen) with 20% FBS. Caco-2 and MCKII-MDR1 culture information is given in the Permeability Studies section. HEK293 cells were cultured in DMEM (Gibco) with 10% FBS, 0.1 mM NEAA, 25 mM HEPES, 100 U/mL penicillin-streptomycin, μg/mL blasticidin, and 400 μg/mL Geneticin. All cells were cultured in a humidified incubator with 5% CO2 at 37 °C.
(§2) Viability assays using A431, HCC827, NCI-H1975, NCI-H3255, Ba/F3 EGFR-del E746_A750/C797S, Ba/F3 EGFR-L858R/C797S, AU565, SK-BR-3, and ZR-75-30 cells were performed at Crown BioScience. Cells were plated into 96-well plates at 1500–7000 cells per well and dosed in triplicate (n = 3) in a nine-point, 4-fold dilution series with compounds (0.15 nM to 10 μM) in DMSO and incubated for 72 h. After 72 h, cell viability was assayed by CellTiter-Glo Luminescent Viability Assay (Promega). Dose–response curves were generated and used to calculate the IC50 values which were calculated on GraphPad Prism from the nonlinear regression equation fitted with a sigmoidal dose response and are presented as mean ± SEM.

[3] = test system: Ba/F3 EGFR-L858R/C797S cells; assay: CellTiter-Glo cell viability assay; format: cell-based; settings: Mus musculus, BaF3; 72 h, unadjusted for FBS
Description: as §1, §2

[4] = Plasma protein binding by equilibrium dialysis; format: in vitro ADME
Description: Plasma protein binding and brain tissue binding were determined by Pharmaron, Inc. using the equilibrium dialysis method. […] Following incubation, the samples were analyzed by LC-MS/MS and the concentrations of the compounds were determined in the buffer and plasma solution chambers.

[5] = Caco-2 permeability; format: in vitro ADME; settings: human; for recovery at 2 h, 5 μM: Caco-2, Caco-2
Description: A 96-well HTS Transwell plate (Corning) was used for Caco-2 and MDCKII-MDR1 cell seeding. […] Plates were incubated at 37 °C for 2 h, and samples (50 μL) were taken at the beginning and end of the incubation in both the donor and acceptor wells with the assay run in duplicate (n = 2). Samples were analyzed by LC-MS/MS.
The efflux ratio was determined by using the following equation: [drawing 4] where Papp (B–A) indicates the apparent permeability in the basolateral to apical direction and Papp (A–B) indicates the apparent permeability in the apical to basolateral direction.

[6] = Lipophilicity, shake-flask; format: physicochemical; settings: 1-octanol/PBS; 1-octanol and PBS (pH 7.4); read-out: logD7.4
Description: Compound lipophilicity was determined by Pharmaron, Inc. using the shake-flask method with 1-octanol and PBS (pH 7.4). Each compound was assessed in duplicate (n = 2) at 1 μM in a 96-well plate shaken at 25 °C and 2000 rpm for 2 h. Samples were analyzed by liquid chromatography and tandem mass spectrometry (LC-MS/MS).

[7] = Metabolic stability in hepatocytes; format: in vitro ADME, human; settings: for Remaining Percentages: human hepatocytes; for hepatocyte CLint at 2 h, 1 µM / half-life at 2 h, 1 µM: human, hepatocytes; for half-life at 2 h, 1 µM: read-out: HEP t1/2
Description: Microsome stability was assessed in duplicate (n = 2) in the presence and absence of nicotinamide adenine dinucleotide phosphate (NADPH) with liver microsomes (0.5 mg/mL) from human (BD Gentest) and Sprague-Dawley rats (BD Gentest). Compounds were incubated in liver microsomes at 1 μM and samples (30 μL) were taken at 0.5, 15, 30, 45, and 60 min time points for analysis by LC-MS/MS. Hepatocyte stability was assessed in duplicate (n = 2) at a working cell density of 0.5 × 10^6 cells/mL with hepatocytes from human (BiolVT), Sprague-Dawley rat (BiolVT), cynomolgus monkey (RILD) or beagle dog (BiolVT). […] The in vitro half-life and intrinsic clearances were determined as previously described.[76]
In vitro half-life (in vitro t1/2) was determined from the slope value in [drawing 1] where k was determined by linear regression of the natural logarithm of the remaining percentage of the parent drug vs the incubation time curve.

[8] = biological target: T1, EGFRwt (Homo sapiens, UniProt P00533); assay: KinaseProfiler enzymatic radiometric assay; format: biochemical; settings: wt, ATP 10 μM; read-out: EGFR IC50
T1 construct: purchased Eurofins DiscoverX (contract assay)
Description: In vitro kinase activity (inhibitor binding constants (Kd) and biochemical inhibition (IC50’s)) were assessed by Eurofins DiscoverX (Kd determinations) and Eurofins Cerep (biochemical IC50 determinations).

[9] = male, Sprague-Dawley, plasma, rat, 1 mg/kg IV and 5 mg/kg PO dosing (route of value not stated)
[10] = Sprague-Dawley, rat, plasma, 5 μM, read-out: fu,plasma% / %Unbound
[11] = Sprague-Dawley, rat, rat plasma
[12] = Sprague-Dawley, rat, rat plasma, read-out: %Bound (converted)
[13] = human, human plasma, read-out: fu,plasma% / %Unbound (converted)
[14] = plasma, human, 5 μM, read-out: fu,plasma% / %Unbound (converted)
[15] = male, Sprague-Dawley, plasma, Rat 2 mg/kg (IV)
[16] = male, Sprague-Dawley, plasma, Rat 20 mg/kg (PO)

T1 sequence (P00533 25-1210): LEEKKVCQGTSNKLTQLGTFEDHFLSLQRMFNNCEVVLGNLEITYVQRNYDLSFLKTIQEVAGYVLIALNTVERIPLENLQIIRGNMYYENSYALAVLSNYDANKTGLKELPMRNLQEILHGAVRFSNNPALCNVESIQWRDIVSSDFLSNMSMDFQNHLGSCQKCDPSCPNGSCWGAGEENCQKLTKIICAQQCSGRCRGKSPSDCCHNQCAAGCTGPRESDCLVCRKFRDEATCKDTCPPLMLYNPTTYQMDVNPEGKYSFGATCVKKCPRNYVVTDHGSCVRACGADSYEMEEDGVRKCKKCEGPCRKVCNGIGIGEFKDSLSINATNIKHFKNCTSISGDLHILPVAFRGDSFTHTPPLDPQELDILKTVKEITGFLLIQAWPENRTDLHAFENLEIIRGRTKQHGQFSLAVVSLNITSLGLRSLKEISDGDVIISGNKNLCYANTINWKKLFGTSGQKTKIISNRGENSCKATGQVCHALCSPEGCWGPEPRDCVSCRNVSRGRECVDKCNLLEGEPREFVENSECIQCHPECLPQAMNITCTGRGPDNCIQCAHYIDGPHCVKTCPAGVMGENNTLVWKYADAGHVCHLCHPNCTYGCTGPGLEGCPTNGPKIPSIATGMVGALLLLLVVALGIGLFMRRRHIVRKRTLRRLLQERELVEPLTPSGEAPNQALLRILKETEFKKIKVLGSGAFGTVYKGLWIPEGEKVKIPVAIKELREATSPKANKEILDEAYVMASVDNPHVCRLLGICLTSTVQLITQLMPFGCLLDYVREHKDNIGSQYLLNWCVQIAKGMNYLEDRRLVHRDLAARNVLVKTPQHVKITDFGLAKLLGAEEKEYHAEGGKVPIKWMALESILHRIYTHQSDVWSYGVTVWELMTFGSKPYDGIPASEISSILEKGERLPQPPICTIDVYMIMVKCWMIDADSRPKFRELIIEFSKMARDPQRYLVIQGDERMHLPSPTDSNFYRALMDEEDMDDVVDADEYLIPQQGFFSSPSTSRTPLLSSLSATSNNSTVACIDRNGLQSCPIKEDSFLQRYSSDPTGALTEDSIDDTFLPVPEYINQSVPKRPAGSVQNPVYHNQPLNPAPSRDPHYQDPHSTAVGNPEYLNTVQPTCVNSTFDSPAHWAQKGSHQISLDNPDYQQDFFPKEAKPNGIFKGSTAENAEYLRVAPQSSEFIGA

Compound | AUC(0-inf) at 24 h [1, 9] [ng·h/mL] | half-life at 24 h [1, 9] [h] | IC50 [2] [nM] | IC50 [3] [nM] | fraction unbound at 6 h, 5 μM [4, 10] | recovery at 6 h, 5 μM [4, 11] [%] | remaining at 6 h, 5 μM [4, 11] [%] | fraction unbound at 6 h, 5 μM [4, 12] | recovery at 6 h, 5 μM ([4]; human, human plasma) [%] | remaining at 6 h, 5 μM ([4]; human, human plasma) [%] | fraction unbound at 6 h, 5 μM [4, 13] | fraction unbound at 6 h, 5 μM [4, 14] | efflux ratio at 2 h, 5 µM ([5]; Caco-2) | recovery at 2 h, 5 μM ([5]; read-out: Recovery% (AP-BL)) [%] | recovery at 2 h, 5 μM ([5]; read-out: Recovery% (BL-AP)) [%] | Papp A→B at 2 h, 5 µM ([5]; Caco-2) [×10⁻⁶ cm/s] | Papp A→B at 2 h, 5 μM ([5]; Caco-2) [×10⁻⁶ cm/s] | Papp B→A at 2 h, 5 µM ([5]; Caco-2) [×10⁻⁶ cm/s] | Papp B→A at 2 h, 5 μM ([5]; Caco-2) [×10⁻⁶ cm/s] | logD at 2 h, 1 µM [6] | also measured
COc1cc2ncnc(Nc3cccc(Cl)c3F)c2cc1OCCON1CCOCC1 [Compound 7, N-(3-Chloro-2-fluorophenyl)-7-methoxy-6-(2-(morpholinooxy)ethoxy)quinazolin-4-amine] | 89 | 0.56 | 2.5 | 5 | 0.105 | 110 | 101 | 0.105 | 98.9 | 99.4 | 0.0412 | 0.0412 | 1 | 72.9 | 72.2 | 10.9 | 10.9 | 10.8 | 10.8 | 3.4 | Remaining Percentages ([7]; 15 min): 96.13%; Remaining Percentages ([7]; 30 min): 87.34%; Remaining Percentages ([7]; 60 min): 76.27%; Remaining Percentages ([7]; 90 min): 61.58%; Remaining Percentages ([7]; 120 min): 45.68%; hepatocyte CLint at 2 h, 1 µM [7]: 13 µL/min/1e6 cells; half-life at 2 h, 1 µM [7]: 1.79 h; IC50 [8]: 3 nM
COc1cc2ncnc(Nc3cccc(Cl)c3F)c2cc1OCCON1CCN(C)CC1 [Compound 9, N-(3-Chloro-2-fluorophenyl)-7-methoxy-6-(2-((4-methylpiperazin-1-yl)oxy)ethoxy)quinazolin-4-amine] | 279 | 2.29 | 2.5 | 4.6 | 0.128 | 106 | 99.6 | 0.128 | 101 | 102 | 0.0442 | 0.0442 | 1.3 | 53.9 | 73.5 | 6.5 | 6.52 | 8.6 | 8.61 | 2.8 | adverse events or signs of toxicity ([1]; Sprague-Dawley rats at the tested PK doses): No adverse events or signs of toxicity were observed; clearance at 24 h [1, 15]: 59.6 ± 22.2 mL/min/kg; half-life at 24 h [1, 15]: 2.4 ± 1.07 h; Vd at 24 h ([1]; male, Sprague-Dawley, plasma, Rat 2 mg/kg (IV), read-out: Vss): 6.67 L/kg; Cmax at 24 h [1, 16]: 653 ± 106 nM; Tmax at 24 h [1, 16]: 2 h; bioavailability at 24 h [1, 16]: 64%; half-life at 24 h [1, 16]: 2.37 h; AUC(0-inf) ([1]; male, Sprague-Dawley, plasma, rat, 20 mg/kg PO): 3910 ng·h/mL; fraction unbound at 6 h, 5 µM ([4]; plasma, human, 5 μM, read-out: fu,plasma% / %Unbound): 0.044; fu,plasma% / %Unbound ([4]; rat, 5 μM): 12.75%; efflux ratio at 2 h, 5 μM ([5]; Caco-2): 1.32; Remaining Percentages ([7]; 15 min): 98.94%; Remaining Percentages ([7]; 30 min): 89.67%; Remaining Percentages ([7]; 60 min): 75.36%; Remaining Percentages ([7]; 90 min): 58.28%; Remaining Percentages ([7]; 120 min): 52.37%; hepatocyte CLint at 2 h, 1 µM [7]: 12 µL/min/1e6 cells; half-life at 2 h, 1 µM [7]: 1.95 h; IC50 [8]: 3 nM
